Experimental data taken from ChEMBL document CHEMBL1201862, “PubChem BioAssay data set” (2004).
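Exposure lasted 48 hours, with cells grown in 96-well plates and compounds tested at five concentrations. Abbreviation: GI50, concentration required for 50% inhibition of growth.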 The source made the active and inactive calls. No stated cut-off is given here; in the data, active = GI50 up to about 1.1 µM and inactive = higher.

How the values were obtained:
Experiment in all cases: NCI-60 cell line screen, 48 h
CCRF-CEM = tested on: CCRF-CEM
UACC-257 = tested on: UACC-257
SW-620 = tested on: SW-620
SF-295 = tested on: SF-295
Malme-3M = tested on: Malme-3M
KM12 = tested on: KM12
ACHN = tested on: ACHN
OVCAR-4 = tested on: OVCAR-4
HCT-15 = tested on: HCT-15
RPMI-8226 = tested on: RPMI-8226
LOX IMVI = tested on: LOX IMVI
NCI-H522 = tested on: NCI-H522
U-251 = tested on: U-251
SF-268 = tested on: SF-268
K562 = tested on: K562
A498 = tested on: A498
A549 = tested on: A549
HCT-116 = tested on: HCT-116
SK-MEL-5 = tested on: SK-MEL-5

SMILES	GI50 (CCRF-CEM)	GI50 (UACC-257)	GI50 (SW-620)	GI50 (SF-295)	GI50 (Malme-3M)	GI50 (KM12)	GI50 (ACHN)	GI50 (OVCAR-4)	GI50 (HCT-15) [µM]	GI50 (RPMI-8226)	GI50 (LOX IMVI)	GI50 (NCI-H522)	GI50 (U-251)	GI50 (SF-268)	GI50 (K562)	GI50 (A498)	GI50 (A549)	GI50 (HCT-116)	GI50 (SK-MEL-5)
COC(=O)C(=O)C(C(=O)C(=O)Nc1ccc([N+](=O)[O-])cc1C#N)c1nc2ccc([N+](=O)[O-])cc2nc1O (stereo not given)	> 100 µM (inactive)	> 100 µM (inactive)	> 100 µM (inactive)	> 100 µM (inactive)	> 100 µM (inactive)	> 100 µM (inactive)	> 100 µM (inactive)	> 100 µM (inactive)	> 100	> 100 µM (inactive)	> 100 µM (inactive)	> 100 µM (inactive)	> 100 µM (inactive)	> 100 µM (inactive)	> 100 µM (inactive)	52.2 µM (inactive)	> 100 µM (inactive)	> 100 µM (inactive)	–
CC1=C(C(=O)CC(=O)C(=O)Nc2ccccc2C(F)(F)F)Sc2ccccc2N1	49.7 µM (inactive)	42.2 µM (inactive)	33.7 µM (inactive)	47.4 µM (inactive)	> 100 µM (inactive)	39.1 µM (inactive)	73.3 µM (inactive)	29.3 µM (inactive)	48.4	60 µM (inactive)	59.3 µM (inactive)	24.5 µM (inactive)	64.9 µM (inactive)	15.7 µM (inactive)	49.1 µM (inactive)	> 100 µM (inactive)	51.1 µM (inactive)	34.8 µM (inactive)	37.3 µM (inactive)
CC12C/C(=C\c3ccccc3)C(=O)C3C1CCCC32	33.3 µM (inactive)	53 µM (inactive)	> 100 µM (inactive)	> 100 µM (inactive)	> 100 µM (inactive)	55.1 µM (inactive)	> 100 µM (inactive)	66.4 µM (inactive)	> 100	34.2 µM (inactive)	72.8 µM (inactive)	26.5 µM (inactive)	61.4 µM (inactive)	> 100 µM (inactive)	38.6 µM (inactive)	> 100 µM (inactive)	> 100 µM (inactive)	67.8 µM (inactive)	46 µM (inactive)
CC(=O)OC1c2ccccc2CCCCCCC12OCCO2 (stereo not given)	> 100 µM (inactive)	55.5 µM (inactive)	> 100 µM (inactive)	> 100 µM (inactive)	92.5 µM (inactive)	> 100 µM (inactive)	> 100 µM (inactive)	> 100 µM (inactive)	68.1	48.3 µM (inactive)	> 100 µM (inactive)	50.9 µM (inactive)	> 100 µM (inactive)	> 100 µM (inactive)	55.2 µM (inactive)	> 100 µM (inactive)	> 100 µM (inactive)	> 100 µM (inactive)	55.5 µM (inactive)
O=C(CC1(O)C(=O)Nc2c(Cl)cc(Cl)cc21)c1cccc2ccccc12 (stereo not given)	17.8 µM (inactive)	15.8 µM (inactive)	16 µM (inactive)	15.7 µM (inactive)	19.5 µM (inactive)	16 µM (inactive)	17.1 µM (inactive)	12.4 µM (inactive)	16.5	19.6 µM (inactive)	17.7 µM (inactive)	14.3 µM (inactive)	15.5 µM (inactive)	21.4 µM (inactive)	16.6 µM (inactive)	21.5 µM (inactive)	15.1 µM (inactive)	15.2 µM (inactive)	15.2 µM (inactive)
O=c1c2cc(Br)cc(Br)c2nc(CCCl)n1CCO	41 µM (inactive)	72.9 µM (inactive)	> 100 µM (inactive)	88.3 µM (inactive)	52.1 µM (inactive)	> 100 µM (inactive)	60.7 µM (inactive)	52.8 µM (inactive)	–	34.8 µM (inactive)	> 100 µM (inactive)	62.4 µM (inactive)	67.1 µM (inactive)	47.1 µM (inactive)	52.5 µM (inactive)	25 µM (inactive)	> 100 µM (inactive)	> 100 µM (inactive)	53.2 µM (inactive)
N#Cc1cc([N+](=O)[O-])ccc1NC(=O)C(=O)Nc1n[nH]c(N)n1	> 100 µM (inactive)	> 100 µM (inactive)	> 100 µM (inactive)	–	> 100 µM (inactive)	> 100 µM (inactive)	> 100 µM (inactive)	> 100 µM (inactive)	> 100	> 100 µM (inactive)	> 100 µM (inactive)	> 100 µM (inactive)	> 100 µM (inactive)	> 100 µM (inactive)	> 100 µM (inactive)	> 100 µM (inactive)	> 100 µM (inactive)	> 100 µM (inactive)	> 100 µM (inactive)
CCOC(OC(C)=O)[C@@H]1C=C[C@H](C)N(c2ccc([N+](=O)[O-])cc2)O1 (stereo not given in full)	2.29 µM (inactive)	9.82 µM (inactive)	2.46 µM (inactive)	11.4 µM (inactive)	7.98 µM (inactive)	2.5 µM (inactive)	5.13 µM (inactive)	6.49 µM (inactive)	2.4	2.06 µM (inactive)	1.87 µM (inactive)	3.16 µM (inactive)	2.74 µM (inactive)	3.13 µM (inactive)	2.73 µM (inactive)	27.6 µM (inactive)	20.2 µM (inactive)	1.25 µM (inactive)	4 µM (inactive)
Nc1ccccc1C(=O)/C=C/c1ccccc1O	33.9 µM (inactive)	15.1 µM (inactive)	35.4 µM (inactive)	> 100 µM (inactive)	> 100 µM (inactive)	31 µM (inactive)	–	48.6 µM (inactive)	–	27.5 µM (inactive)	43.8 µM (inactive)	34.5 µM (inactive)	95.9 µM (inactive)	56.5 µM (inactive)	29.8 µM (inactive)	> 100 µM (inactive)	45.5 µM (inactive)	38.2 µM (inactive)	65 µM (inactive)
O=C(C=C1SCCS1)/C=C\c1ccc(Cl)cc1	51.3 µM (inactive)	80.2 µM (inactive)	> 100 µM (inactive)	> 100 µM (inactive)	> 100 µM (inactive)	87.1 µM (inactive)	–	> 100 µM (inactive)	–	31.5 µM (inactive)	53.8 µM (inactive)	> 100 µM (inactive)	–	> 100 µM (inactive)	49.5 µM (inactive)	> 100 µM (inactive)	> 100 µM (inactive)	> 100 µM (inactive)	> 100 µM (inactive)
Cn1c(=O)c2ccc(-c3ccc(Br)cc3)nc2n(C)c1=O	> 100 µM (inactive)	> 100 µM (inactive)	> 100 µM (inactive)	> 100 µM (inactive)	> 100 µM (inactive)	> 100 µM (inactive)	–	> 100 µM (inactive)	> 100	> 100 µM (inactive)	> 100 µM (inactive)	> 100 µM (inactive)	> 100 µM (inactive)	> 100 µM (inactive)	> 100 µM (inactive)	> 100 µM (inactive)	> 100 µM (inactive)	68.9 µM (inactive)	> 100 µM (inactive)
